Active and inactive are the calls of the source. The rule behind the calls is not given here.
Columns and labels:
[1] = Acute toxicity in ICR male mouse assessed as approximate lethal dose; conditions: in vivo, read-out: ALD50
[2] = molecular target: Cyclin-dependent kinase 1 (Homo sapiens) (UniProt P06493); assay: Inhibition of human CDK1 at 100 nM in presence of ATP relative to control
[3] = molecular target: High affinity nerve growth factor receptor (Homo sapiens, UniProt P04629); assay: Inhibition of human TrkA in presence of ATP
[4] = molecular target: BDNF/NT-3 growth factors receptor (Homo sapiens, UniProt Q16620); assay: Inhibition of human TrkB at 100 nM in presence of ATP relative to control
[5] = molecular target: Proto-oncogene tyrosine-protein kinase Src (Homo sapiens, UniProt P12931); assay: Inhibition of human c-SRC at 100 nM in presence of ATP relative to control
[6] = molecular target: Receptor-type tyrosine-protein kinase FLT3 (Homo sapiens) (UniProt P36888); assay: Inhibition of FLT3 in human MV4-11 cells assessed as reduction in Erk1/2 phosphorylation at 0.01 to 1 uM incubated for 4 hrs by Western blot analysis; format: cell-based; conditions: dose 0.01-1 µM
[7] = molecular target: Tyrosine-protein kinase Mer (Homo sapiens) (UniProt Q12866); assay: Inhibition of human MER at 100 nM in presence of ATP relative to control
[8] = Cmax in ICR mouse at 10 mg/kg, iv or po measured up to 1440 mins by LC-MS/MS analysis; format: ADME, organism-based; parameters: dose 10 mg/kg, time <=1440; conditions: in vivo
MOLM-14 = assay: cells; conditions: Homo sapiens
Description: Antiproliferative activity against human MOLM14 cells harboring ITD/D835Y mutant assessed as cell growth inhibition by MTT assay

[9] = molecular target: Maternal embryonic leucine zipper kinase (Homo sapiens, UniProt Q14680); assay: Inhibition of human MELK in presence of ATP
HepG2 = assay: cells; conditions: Homo sapiens
Description: Antiproliferative activity against human HepG2 cells assessed as cell growth inhibition by WST assay

[10] = Selectivity index, ratio of GI50 for human K562 cells to GI50 for human MV4-11 cells; format: functional
[11] = Oral bioavailability in ICR mouse at 10 mg/kg measured up to 1440 mins by LC-MS/MS analysis; format: ADME, organism-based; conditions: in vivo
MDA-MB-231 = assay: cells; conditions: Homo sapiens, MDA-MB-231, read-out: INH
Description: Antiproliferative activity against human MDA-MB-231 cells assessed as cell growth inhibition at 1 uM by WST assay relative to control

MV4-11 = assay: cells; conditions: Homo sapiens, MV4-11, 72 h
Description: Antiproliferative activity against human MV4-11 cells assessed as cell growth inhibition after 72 hrs by WST assay

Receptor-type tyrosine-protein kinase FLT3 (Homo sapiens), sequence (P36888 whole entry): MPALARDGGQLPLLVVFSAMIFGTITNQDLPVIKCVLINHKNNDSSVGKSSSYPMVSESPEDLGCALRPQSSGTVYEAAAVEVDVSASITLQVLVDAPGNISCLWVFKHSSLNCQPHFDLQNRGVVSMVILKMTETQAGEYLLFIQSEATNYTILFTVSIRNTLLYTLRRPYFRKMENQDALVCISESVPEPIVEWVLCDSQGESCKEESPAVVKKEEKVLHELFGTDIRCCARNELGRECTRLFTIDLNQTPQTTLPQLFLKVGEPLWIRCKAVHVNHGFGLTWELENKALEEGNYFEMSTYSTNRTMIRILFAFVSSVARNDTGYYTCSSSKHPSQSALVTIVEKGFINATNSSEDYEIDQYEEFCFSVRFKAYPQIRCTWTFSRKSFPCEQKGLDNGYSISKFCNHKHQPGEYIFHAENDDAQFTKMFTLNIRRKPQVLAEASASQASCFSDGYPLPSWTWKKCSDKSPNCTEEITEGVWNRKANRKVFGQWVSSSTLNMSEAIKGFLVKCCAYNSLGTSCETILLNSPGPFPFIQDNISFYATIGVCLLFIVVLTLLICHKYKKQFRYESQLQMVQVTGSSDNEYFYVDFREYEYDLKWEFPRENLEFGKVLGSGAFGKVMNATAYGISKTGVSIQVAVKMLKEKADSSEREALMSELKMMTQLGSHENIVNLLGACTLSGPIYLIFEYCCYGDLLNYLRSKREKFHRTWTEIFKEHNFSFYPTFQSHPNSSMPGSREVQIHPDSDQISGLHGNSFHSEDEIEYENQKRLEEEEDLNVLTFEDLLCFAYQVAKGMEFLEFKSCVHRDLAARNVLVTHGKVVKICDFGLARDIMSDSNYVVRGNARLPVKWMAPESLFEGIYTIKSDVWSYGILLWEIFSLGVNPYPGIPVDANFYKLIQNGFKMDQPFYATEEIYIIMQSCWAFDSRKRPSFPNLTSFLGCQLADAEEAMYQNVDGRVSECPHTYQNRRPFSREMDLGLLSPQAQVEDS
Proto-oncogene tyrosine-protein kinase Src, sequence (P12931 2-536 limits assumed): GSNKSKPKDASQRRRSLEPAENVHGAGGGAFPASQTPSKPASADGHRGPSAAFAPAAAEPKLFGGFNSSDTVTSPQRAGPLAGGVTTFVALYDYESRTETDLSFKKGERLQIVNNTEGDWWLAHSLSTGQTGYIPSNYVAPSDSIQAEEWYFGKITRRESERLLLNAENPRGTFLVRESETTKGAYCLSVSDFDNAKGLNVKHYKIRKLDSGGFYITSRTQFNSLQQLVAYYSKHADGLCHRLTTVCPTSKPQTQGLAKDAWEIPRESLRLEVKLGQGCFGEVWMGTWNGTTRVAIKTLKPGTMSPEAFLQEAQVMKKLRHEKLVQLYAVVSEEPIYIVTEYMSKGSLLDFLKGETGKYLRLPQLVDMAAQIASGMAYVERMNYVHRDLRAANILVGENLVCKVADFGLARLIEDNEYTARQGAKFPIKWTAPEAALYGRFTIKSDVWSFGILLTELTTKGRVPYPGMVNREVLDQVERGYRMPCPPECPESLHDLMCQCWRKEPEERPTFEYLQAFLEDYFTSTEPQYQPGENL
BDNF/NT-3 growth factors receptor, sequence (Q16620 32-822 limits assumed): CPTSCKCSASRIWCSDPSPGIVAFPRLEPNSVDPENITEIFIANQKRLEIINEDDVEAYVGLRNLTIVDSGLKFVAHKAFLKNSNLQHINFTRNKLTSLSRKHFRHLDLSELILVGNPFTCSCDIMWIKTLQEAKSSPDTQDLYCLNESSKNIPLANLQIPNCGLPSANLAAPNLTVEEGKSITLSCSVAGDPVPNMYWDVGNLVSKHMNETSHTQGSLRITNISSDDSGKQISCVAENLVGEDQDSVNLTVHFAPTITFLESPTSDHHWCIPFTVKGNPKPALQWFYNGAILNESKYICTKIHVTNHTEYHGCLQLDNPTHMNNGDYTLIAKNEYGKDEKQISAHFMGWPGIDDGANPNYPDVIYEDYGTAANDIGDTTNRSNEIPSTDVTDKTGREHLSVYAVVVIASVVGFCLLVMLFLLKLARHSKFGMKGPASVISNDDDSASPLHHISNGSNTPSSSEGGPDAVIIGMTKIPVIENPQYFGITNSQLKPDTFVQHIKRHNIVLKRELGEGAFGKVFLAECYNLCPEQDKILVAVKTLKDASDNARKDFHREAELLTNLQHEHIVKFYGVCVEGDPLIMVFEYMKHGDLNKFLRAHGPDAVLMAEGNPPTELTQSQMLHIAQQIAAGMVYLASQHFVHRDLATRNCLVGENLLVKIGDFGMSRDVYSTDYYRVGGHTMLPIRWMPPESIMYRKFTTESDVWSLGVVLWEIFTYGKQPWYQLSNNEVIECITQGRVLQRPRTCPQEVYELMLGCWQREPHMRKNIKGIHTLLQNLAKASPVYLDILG
Cyclin-dependent kinase 1 (Homo sapiens), sequence (P06493 whole entry, looked up): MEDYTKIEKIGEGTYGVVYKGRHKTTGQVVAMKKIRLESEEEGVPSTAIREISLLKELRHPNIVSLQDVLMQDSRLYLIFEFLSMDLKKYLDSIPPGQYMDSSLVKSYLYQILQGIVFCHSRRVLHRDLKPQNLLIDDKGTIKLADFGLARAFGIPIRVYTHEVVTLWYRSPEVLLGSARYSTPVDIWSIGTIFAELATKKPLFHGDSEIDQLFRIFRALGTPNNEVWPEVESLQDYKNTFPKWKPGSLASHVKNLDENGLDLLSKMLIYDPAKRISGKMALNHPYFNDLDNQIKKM
Maternal embryonic leucine zipper kinase, sequence (Q14680 whole entry): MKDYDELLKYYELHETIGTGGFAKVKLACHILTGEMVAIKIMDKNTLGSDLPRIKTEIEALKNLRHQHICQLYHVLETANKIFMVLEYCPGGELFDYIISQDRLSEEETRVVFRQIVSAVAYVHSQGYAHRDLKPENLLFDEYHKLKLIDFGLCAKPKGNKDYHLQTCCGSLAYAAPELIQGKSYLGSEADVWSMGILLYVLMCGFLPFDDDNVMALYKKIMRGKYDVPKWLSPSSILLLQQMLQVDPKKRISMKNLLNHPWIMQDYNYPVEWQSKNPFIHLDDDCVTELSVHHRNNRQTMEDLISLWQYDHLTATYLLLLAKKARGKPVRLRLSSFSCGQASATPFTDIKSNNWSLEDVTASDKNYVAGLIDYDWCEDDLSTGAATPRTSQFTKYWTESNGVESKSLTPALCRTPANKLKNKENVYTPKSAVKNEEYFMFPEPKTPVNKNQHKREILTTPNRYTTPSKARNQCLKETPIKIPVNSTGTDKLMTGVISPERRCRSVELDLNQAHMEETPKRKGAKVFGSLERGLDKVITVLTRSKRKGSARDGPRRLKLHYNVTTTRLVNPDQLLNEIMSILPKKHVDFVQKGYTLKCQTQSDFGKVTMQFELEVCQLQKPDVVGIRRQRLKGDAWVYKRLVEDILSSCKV
High affinity nerve growth factor receptor, sequence (P04629 whole entry): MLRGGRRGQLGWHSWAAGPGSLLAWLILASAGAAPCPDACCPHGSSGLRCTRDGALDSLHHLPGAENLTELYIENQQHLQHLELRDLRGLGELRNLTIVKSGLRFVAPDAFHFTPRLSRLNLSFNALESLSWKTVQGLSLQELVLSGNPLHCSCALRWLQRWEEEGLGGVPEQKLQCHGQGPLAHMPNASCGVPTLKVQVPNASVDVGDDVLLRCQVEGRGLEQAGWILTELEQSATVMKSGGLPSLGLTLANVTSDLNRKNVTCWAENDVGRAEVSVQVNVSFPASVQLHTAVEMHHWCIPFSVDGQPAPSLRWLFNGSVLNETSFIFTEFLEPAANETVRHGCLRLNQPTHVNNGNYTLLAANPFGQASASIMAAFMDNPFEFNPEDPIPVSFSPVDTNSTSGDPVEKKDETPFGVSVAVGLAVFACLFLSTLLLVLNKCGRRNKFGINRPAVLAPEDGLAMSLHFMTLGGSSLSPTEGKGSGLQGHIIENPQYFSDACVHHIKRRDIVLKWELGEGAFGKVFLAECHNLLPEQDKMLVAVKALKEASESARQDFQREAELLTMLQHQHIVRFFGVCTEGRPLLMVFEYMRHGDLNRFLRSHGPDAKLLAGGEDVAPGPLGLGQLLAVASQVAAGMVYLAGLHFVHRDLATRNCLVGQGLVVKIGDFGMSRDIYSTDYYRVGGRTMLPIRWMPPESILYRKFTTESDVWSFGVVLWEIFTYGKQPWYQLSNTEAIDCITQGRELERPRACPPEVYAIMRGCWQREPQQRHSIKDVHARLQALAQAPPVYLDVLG
Tyrosine-protein kinase Mer (Homo sapiens), sequence (Q12866 whole entry): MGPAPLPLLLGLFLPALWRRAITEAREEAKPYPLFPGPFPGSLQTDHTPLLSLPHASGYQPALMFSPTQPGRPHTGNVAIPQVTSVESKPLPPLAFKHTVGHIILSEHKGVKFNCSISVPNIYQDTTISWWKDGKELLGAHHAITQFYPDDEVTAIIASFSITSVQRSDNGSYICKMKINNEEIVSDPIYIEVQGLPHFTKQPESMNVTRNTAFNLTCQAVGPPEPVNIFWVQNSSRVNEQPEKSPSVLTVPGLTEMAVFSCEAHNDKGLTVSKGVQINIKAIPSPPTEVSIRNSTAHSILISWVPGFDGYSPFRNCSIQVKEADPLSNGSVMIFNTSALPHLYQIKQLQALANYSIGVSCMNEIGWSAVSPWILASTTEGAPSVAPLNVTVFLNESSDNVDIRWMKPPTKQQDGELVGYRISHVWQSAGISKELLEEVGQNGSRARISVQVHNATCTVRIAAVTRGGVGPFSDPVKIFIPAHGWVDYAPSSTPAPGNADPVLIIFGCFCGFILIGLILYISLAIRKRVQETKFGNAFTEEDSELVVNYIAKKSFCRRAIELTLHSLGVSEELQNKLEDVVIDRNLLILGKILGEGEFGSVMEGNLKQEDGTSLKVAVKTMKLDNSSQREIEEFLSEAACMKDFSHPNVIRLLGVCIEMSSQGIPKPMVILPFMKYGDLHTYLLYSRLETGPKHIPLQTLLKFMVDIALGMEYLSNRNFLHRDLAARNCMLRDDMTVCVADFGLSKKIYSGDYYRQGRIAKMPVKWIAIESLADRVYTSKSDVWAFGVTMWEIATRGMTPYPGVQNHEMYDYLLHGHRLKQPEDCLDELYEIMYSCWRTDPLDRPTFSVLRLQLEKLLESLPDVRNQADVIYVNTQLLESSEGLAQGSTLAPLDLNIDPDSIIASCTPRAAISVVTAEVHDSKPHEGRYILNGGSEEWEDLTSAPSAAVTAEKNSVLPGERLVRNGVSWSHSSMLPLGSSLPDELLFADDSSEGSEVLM

SMILES: Cl.O=C1Nc2ccc(F)cc2/C1=C1/Nc2ccccc2/C1=N\OCCN1CCNCC1
- LD50 [1]: 2000 mg/kg
- inhibition [2]: 21%
- IC50 [3]: 6.89 nM
- inhibition [4]: 100%
- inhibition [5]: 87%
- inhibition [6]: Active
- inhibition [7]: 100%
- Cmax [8]: 36.5 ng/mL
- GI50 (MOLM-14): 1.87 nM
- IC50 [9]: 5.54 nM
- GI50 (HepG2): 1100 nM
- RatioGI50 [10]: 430
- bioavailability [11]: 42.6%
- inhibition at 1 µM (MDA-MB-231): 8.95%
- GI50 (MV4-11): 1 nM

Source: ChEMBL document CHEMBL4765285, “Discovery of orally active indirubin-3'-oxime derivatives as potent type 1 FLT3 inhibitors for acute myeloid leukemia” (Eur J Med Chem, 2020)
